One assay addresses T1, EHMT1 (Homo sapiens, UniProt Q9H9B1).
T1 sequence (Q9H9B1 1-1298): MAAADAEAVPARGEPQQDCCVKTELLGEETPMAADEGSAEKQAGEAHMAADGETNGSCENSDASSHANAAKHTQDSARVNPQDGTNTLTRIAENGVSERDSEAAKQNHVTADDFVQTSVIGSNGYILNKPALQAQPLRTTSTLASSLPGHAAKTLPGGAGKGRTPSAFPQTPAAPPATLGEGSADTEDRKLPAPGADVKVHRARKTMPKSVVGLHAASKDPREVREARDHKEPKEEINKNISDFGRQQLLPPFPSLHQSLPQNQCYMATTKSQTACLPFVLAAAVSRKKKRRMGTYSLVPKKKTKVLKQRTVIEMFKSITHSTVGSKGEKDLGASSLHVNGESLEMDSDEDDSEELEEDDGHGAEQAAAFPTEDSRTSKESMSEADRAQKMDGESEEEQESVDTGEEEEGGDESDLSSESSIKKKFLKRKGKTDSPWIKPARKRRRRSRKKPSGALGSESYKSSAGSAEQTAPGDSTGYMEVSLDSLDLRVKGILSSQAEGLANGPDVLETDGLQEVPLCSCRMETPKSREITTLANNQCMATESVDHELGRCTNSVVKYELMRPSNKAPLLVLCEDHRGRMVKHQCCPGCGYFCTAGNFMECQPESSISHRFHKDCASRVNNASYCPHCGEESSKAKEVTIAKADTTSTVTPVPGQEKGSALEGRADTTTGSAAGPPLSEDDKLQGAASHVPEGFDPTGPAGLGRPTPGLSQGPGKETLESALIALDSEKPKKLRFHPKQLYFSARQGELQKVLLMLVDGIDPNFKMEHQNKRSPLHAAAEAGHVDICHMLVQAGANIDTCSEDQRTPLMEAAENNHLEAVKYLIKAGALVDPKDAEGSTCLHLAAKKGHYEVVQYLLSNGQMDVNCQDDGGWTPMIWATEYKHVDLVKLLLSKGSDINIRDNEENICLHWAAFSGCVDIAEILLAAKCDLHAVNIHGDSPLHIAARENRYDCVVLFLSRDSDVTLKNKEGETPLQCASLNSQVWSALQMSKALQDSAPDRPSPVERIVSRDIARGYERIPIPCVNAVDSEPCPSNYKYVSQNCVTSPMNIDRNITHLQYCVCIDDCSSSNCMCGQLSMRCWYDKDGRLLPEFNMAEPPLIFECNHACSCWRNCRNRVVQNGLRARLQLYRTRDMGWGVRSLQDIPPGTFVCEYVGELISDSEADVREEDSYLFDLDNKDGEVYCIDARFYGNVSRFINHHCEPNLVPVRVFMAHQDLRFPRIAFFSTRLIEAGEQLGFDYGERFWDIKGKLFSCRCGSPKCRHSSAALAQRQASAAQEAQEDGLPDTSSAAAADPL
The experiment in a line: EHMT1 enzyme assay on peptide substrate (EHMT1 PEP). It counts as biochemical. As to conditions: read-out: EHMT1 PEP (IC50 μM).

A further assay has as its target T2, human EHMT2 913-1193 (Homo sapiens, UniProt Q96KQ7).
T2 construct: recombinant purified human EHMT2 913-1193, Viva; purchased Viva
T2 sequence (Q96KQ7 913-1193): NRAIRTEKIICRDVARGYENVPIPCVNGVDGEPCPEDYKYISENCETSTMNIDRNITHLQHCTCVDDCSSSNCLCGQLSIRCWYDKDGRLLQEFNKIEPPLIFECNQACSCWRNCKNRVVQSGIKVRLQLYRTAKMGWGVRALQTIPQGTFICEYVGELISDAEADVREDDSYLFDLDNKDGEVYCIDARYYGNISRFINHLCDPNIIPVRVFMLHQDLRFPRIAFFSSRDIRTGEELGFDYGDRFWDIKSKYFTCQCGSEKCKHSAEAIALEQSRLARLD
Briefly: EHMT2 enzyme assay on histone peptide substrate (EHMT2 PEP). It counts as biochemical. The following applies: recombinant human EHMT2 913-1193, histone H3 1-15 peptide, balanced conditions; read-out: EHMT2 PEP (IC50 μM). A digest of the protocol: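 Radiometric methyltransferase read-out: ^3H-methyl transfer from ^3H-SAM onto biotinylated histone peptide, captured on streptavidin Flashplates after 60 min reaction at room temperature. Enzyme 0.031 nM, preincubated 30 min with inhibitor; buffer 20 mM Bicine pH 7.5 with 1 mM TCEP; top compound concentration 50 μM final, 2% DMSO.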

Usually IC50 stands for the point on the concentration scale where inhibition reaches its midpoint. Regarding `CNc1ccnc(Nc2cc(OCCCN3CCCC3)c3cn[nH]c3c2)n1` [Compound 538, N^4-methyl-N^2-(4-(3-(pyrrolidin-1-yl)propoxy)-1H-indazol-6-yl)pyrimidine-2,4-diamine], the half-inhibitory concentration (IC50) on EHMT1 and on human EHMT2 913-1193 was 0.1 to 1 µM each time.

Regarding `CNc1ccnc(Nc2cc(OCCCN3CCCC3)c3[nH]ncc3c2)n1` [Compound 539], the results for the half-maximal inhibitory concentration (IC50) on EHMT1 and at human EHMT2 913-1193 were over 10 µM and 1 to 10 µM, respectively.

As for `CNc1ccnc(NC2CCCNC2)n1` (stereo not shown) [Compound 541, N^4-methyl-N^2-(piperidin-3-yl)pyrimidine-2,4-diamine], the IC50 at EHMT1 and on human EHMT2 913-1193 was over 10 µM in each case.

Turning to `CNc1ccnc(NC2CCNCC2)n1` [Compound 542, N^4-methyl-N^2-(piperidin-4-yl)pyrimidine-2,4-diamine], the IC50 at EHMT1 and at human EHMT2 913-1193 was over 10 µM each time.

For `CCCC1(Nc2nccc(NC)n2)CCCNC1` (stereo not shown) [Compound 544], the IC50 on EHMT1 and at human EHMT2 913-1193 was over 10 µM throughout.

With `CCCC1(Nc2nccc(NC)n2)CCNCC1` [Compound 545], the IC50 at EHMT1 and on human EHMT2 913-1193 was over 10 µM throughout.

`CNc1ccnc(NC2(C)CCCNC2)n1` (stereo not shown) [Compound 546, N^4-methyl-N^2-(3-methylpiperidin-3-yl)pyrimidine-2,4-diamine]: the IC50 at EHMT1 and on human EHMT2 913-1193 was over 10 µM throughout.

Regarding `CNc1ccnc(NC2(C)CCNCC2)n1` [Compound 547, N^4-methyl-N^2-(4-methylpiperidin-4-yl)pyrimidine-2,4-diamine], the IC50 at EHMT1 and at human EHMT2 913-1193 was over 10 µM in each case.

As for `CNc1ccnc(N[C@@H]2CC[C@H](N)C2)n1` [Compound 548, N^2-((1R,3S)-3-aminocyclopentyl)-N^4-methylpyrimidine-2,4-diamine], the 50% inhibitory concentration (IC50) at EHMT1 and on human EHMT2 913-1193 was over 10 µM in each case.

For `CCCCN1CCCC(C)(Nc2nccc(NC)n2)C1` (stereo not shown) [Compound 549, N^2-(1-butyl-3-methylpiperidin-3-yl)-N^4-methylpyrimidine-2,4-diamine], the half-inhibitory concentration (IC50) at EHMT1 and at human EHMT2 913-1193 was over 10 µM in each case.

Regarding `CCCCN1CCC(C)(Nc2nccc(NC)n2)CC1` [Compound 550, N^2-(1-butyl-4-methylpiperidin-4-yl)-N^4-methylpyrimidine-2,4-diamine], the IC50 on EHMT1 and at human EHMT2 913-1193 was over 10 µM throughout.

Take `CNc1cc(C)nc(Nc2ccc(OC)c(OCCCN(C)C3CCC3)c2)n1` [Compound 551, N^2-(3-(3-(cyclobutyl(methyl)amino)propoxy)-4-methoxyphenyl)-N^4,6-dimethylpyrimidine-2,4-diamine]: the half-maximal inhibitory concentration (IC50) on EHMT1 and on human EHMT2 913-1193 was 0.1 to 1 µM in each case.

With `c1nc(NC2CCNCC2)ncc1OCCCN1CCCC1` [Compound 552], the half-inhibitory concentration (IC50) on EHMT1 and at human EHMT2 913-1193 was over 10 µM each time.

Regarding `CN1CCC(COc2cnc(NCC3CCOCC3)nc2)C1` (stereo not shown) [Compound 553], the IC50 on EHMT1 and on human EHMT2 913-1193 was over 10 µM in each case.

For the molecule `CN1CCC(COc2ccc(NC3CCNCC3)nc2)C1` (stereo not shown) [Compound 554], the IC50 on EHMT1 and on human EHMT2 913-1193 was over 10 µM in each case.

In the case of `CN1CCC(COc2cnc(NC3CCNCC3)nc2)C1` (stereo not shown) [Compound 555], the concentration for half-maximal inhibition (IC50) on EHMT1 and at human EHMT2 913-1193 was over 10 µM in each case.

In the case of `c1nc(NC2CCNCC2)ncc1OCC1CCN(C2CC2)C1` (stereo not shown) [Compound 556], the IC50 on EHMT1 and at human EHMT2 913-1193 was over 10 µM throughout.

Consider `c1nc(NC2CCOCC2)ncc1OCC1CCN(C2CC2)C1` (stereo not shown) [Compound 557], for which the IC50 at EHMT1 and on human EHMT2 913-1193 was over 10 µM in each case.

On to `CNc1cc(C)nc(Nc2cnc(OC)c(OC[C@H]3CCN(C4CC4)C3)c2)n1` [Compound 558], for which the IC50 at EHMT1 was under 0.1 µM; at human EHMT2 913-1193, 0.1 to 1 µM.

Turning to `CNc1cc(C)nc(Nc2ccc(OC)c(OCC3CN(C(C)C)C3)c2)n1` [Compound 559], the IC50 at EHMT1 is under 0.1 µM; at human EHMT2 913-1193 it was 0.1 to 1 µM.

For the molecule `CCN1CC(C(O)Oc2cc(Nc3nc(C)cc(NC)n3)ccc2OC)C1` (stereo not shown) [Compound 560], the IC50 at EHMT1 and at human EHMT2 913-1193 was 0.1 to 1 µM throughout.

On to `CNc1cc(C)nc(Nc2ccc(OC)c(O)c2)n1` [Compound 561], for which the IC50 on EHMT1 and at human EHMT2 913-1193 was over 10 µM in each case.

On to `CCN1CC(C(C#N)Oc2cc(Nc3nc(C)cc(NC)n3)ccc2OC)C1` (stereo not shown) [Compound 562], for which the 50% inhibitory concentration (IC50) on EHMT1 and at human EHMT2 913-1193 was 1 to 10 µM each time.

`CNc1cc(C)nc(Nc2ccc(OC)c(OC[C@@H]3CCN(C4CCC4)C3)c2)n1` [Compound 563]: the IC50 on EHMT1 and at human EHMT2 913-1193 was under 0.1 µM each time.

Regarding `CCN1CC(COc2cc(Nc3nccc4[nH]ccc34)ncc2OC)C1` [Compound 564], the IC50 on EHMT1 and on human EHMT2 913-1193 was under 0.1 µM in each case.

Turning to `COc1cc(Nc2nc(C)cc3[nH]ncc23)ncc1OCCCN1CCCC1` [Compound 565], the IC50 on EHMT1 and on human EHMT2 913-1193 was 1 to 10 µM throughout.

With `CCN1CC(COc2cc(Nc3cc(NC)ncc3F)ncc2OC)C1` [Compound 566], the IC50 at EHMT1 and on human EHMT2 913-1193 was 1 to 10 µM throughout.

Consider `CCN1CC(COc2cc(Nc3cc(NC)nc(C)c3F)ncc2OC)C1` [Compound 567], for which the IC50 on EHMT1 and on human EHMT2 913-1193 was 1 to 10 µM throughout.

`CNc1cc(C)nc(Nc2ccc(OC)c(OC[C@@H]3CCN(C4(C)CC4)C3)c2)n1` [Compound 568]: the IC50 at EHMT1 was under 0.1 µM; at human EHMT2 913-1193 it was 0.1 to 1 µM.

For `CCN1CC(COc2cc(Nc3cc(NC)cc(C)n3)cnc2OC)C1` [Compound 569], the figures for the half-inhibitory concentration (IC50) on EHMT1 and on human EHMT2 913-1193 were under 0.1 µM and 0.1 to 1 µM, respectively.

In the case of `CCN1CC[C@@H](COc2cc(Nc3nc(C)cc(NC)n3)ccc2OC)C1` [Compound 571], the IC50 on EHMT1 and at human EHMT2 913-1193 was under 0.1 µM each time.

In the case of `COc1ccc(NC2CCNCC2)cc1OCCCN1CCCC1` [Compound 572], the concentration for half-maximal inhibition (IC50) on EHMT1 and at human EHMT2 913-1193 was over 10 µM each time.

On to `COc1ccc(NC2CCCNC2)cc1OCCCN1CCCC1` (stereo not shown) [Compound 573], for which the IC50 on EHMT1 and on human EHMT2 913-1193 was 1 to 10 µM each time.

Consider `CNc1cc(C)nc(Nc2ccc(OC)c(OCCCN3CC4(CC4)C3)c2)n1` [Compound 574], for which the IC50 on EHMT1 and at human EHMT2 913-1193 was 1 to 10 µM throughout.

Turning to `CNc1cc(C)nc(Nc2ccc(OC)c(OCC3CN(C(C)C)C3)c2)n1` [Compound 575], the values for the concentration for half-maximal inhibition (IC50) on EHMT1 and at human EHMT2 913-1193 were 0.1 to 1 µM and 1 to 10 µM, respectively.

With `CNc1cc(C)nc(Nc2ccc(OC)c(OCC3CN(C4CCC4)C3)c2)n1` [Compound 576], the IC50 on EHMT1 is under 0.1 µM; at human EHMT2 913-1193, 0.1 to 1 µM.

As for `CNc1cc(C)nc(Nc2ccc(OC)c(OCC3CN(C4CCCC4)C3)c2)n1` [Compound 577], the values for the IC50 at EHMT1 and on human EHMT2 913-1193 were 0.1 to 1 µM and 1 to 10 µM, respectively.

Take `COc1cc(NC2CCCNC2)ccc1OCCCN1CCCC1` (stereo not shown) [Compound 578]: the half-inhibitory concentration (IC50) on EHMT1 and at human EHMT2 913-1193 was 1 to 10 µM each time.

In the case of `COc1cc(NC2CCNCC2)ccc1OCCCN1CCCC1` [Compound 579], the half-maximal inhibitory concentration (IC50) at EHMT1 and on human EHMT2 913-1193 was 1 to 10 µM throughout.

For the molecule `CNc1cc(C)nc(Nc2ccc(OC)c(OCC3CN(C4CCOC4)C3)c2)n1` (stereo not shown) [Compound 580], the half-inhibitory concentration (IC50) on EHMT1 and at human EHMT2 913-1193 was over 10 µM in each case.

Consider `COc1cnc(Nc2cccc3[nH]ncc23)cc1OCCCN1CCCC1` [Compound 581], for which the IC50 on EHMT1 was over 10 µM; at human EHMT2 913-1193, 1 to 10 µM.

The record behind these values is patent publication US20210198277A1, “AMINE-SUBSTITUTED ARYL OR HETEROARYL COMPOUNDS” (Epizyme, Inc., priority 2016, published 2021).
